Results on one compound are retold here after US20110129532A1, “METHOD AND MEANS FOR TREATING VIRAL DISEASE, IN PARTICULAR HIV/AIDS” (ISR Immune System Regulation AB, priority 2008, published 2011).

In one assay the test system is T cells. As to the kind of experiment: Stimulation of T cells in whole blood with GnRH analog, activation markers by flow cytometry. The format is cell-based, human. As to the method:
Stimulation of T-cells from HIV-patients with GnRH-analog. Because of the risk of contamination, blood samples from HIV-patients had to be handled and analyzed in a closed automated system. Heparinised blood from three HIV-patients and two healthy individuals was diluted with serum-free culture medium (Aim V from Invitrogen) and stimulated with 50 U/mL IL-2 and four different concentrations of the GnRH analog leuprolide acetate between 10^−1 and 10^−5 M. The blood samples were handled by a dispensation robot (Prep Plus) and incubated, lysed, stabilized and fixed in a TQ-Prep machine. The incubation time was 18 h and the temperature 37° C. After the incubation with Leuprolide acetate and IL-2, the cells were stained with fluorochrome-conjugated mAbs for 10 min, and red blood cells were lysed. The lymphocytes were subsequently analysed by flow cytometry on an Epics XL-MCL (all machines from Beckman Coulter). T-cells were identified by their forward-and side scatter properties, and the surface expression of CD3. The expression of the activation markers CD25, CD69, HLA ABC, and HLA DR on T cells was evaluated.

The subject of the next assay is PBMC. Nature of the assay: IL-2-induced PBMC proliferation assay ([3H]thymidine). The assay is classed as cell-based, human. Particulars: PBMC from a healthy donor; with IL-2 50 U/mL; compared with IL-2 alone and untreated controls; FIG. 1. As to the method:
Isolation of peripheral blood mononuclear cells (PBMC). Lymphocytes and monocytes were purified from blood samples from healthy donors using Ficoll-Paque Plus (Amersham Biosciences, Uppsala, Sweden). The blood sample was diluted with PBS and carefully layered on a Ficoll-sodium diatrizoate solution, after which the two-phase system was centrifuged at 400×g for 30 min. […] The lymphocyte layer was collected using a Pasteur pipette, and the cells washed with HBSS to remove excess Ficoll-Paque Plus, plasma and platelets. The cells were counted and dissolved in RPMI medium containing 10% HuS, 1% PeSt and 1% glutamine.
Proliferation assay. Interleukin (IL)-2 plays a pivotal role in lymphocyte activation and proliferation. For this reason the effect of GnRH analog on IL-2-induced PBMC proliferation was investigated. PBMCs from a healthy donor were plated in round-bottomed 96-well plates at a concentration of 1×10^5 cells/100 μL in the culture medium described above. Just after the onset of culture, the cells were treated with IL-2 (Proleukin, Chiron Corporation, Emeryville, Ca, USA) at a concentration of 50 U/mL and with three different concentrations between 1×10^−9 and 1×10^−5 M of GnRH analog (Leuprolide acetate, Nordic Drugs, Limhamn, Sweden) or culture medium (FIG. 1). […] Radioactivity was measured using a 1205 Betaplate Liquid ScintillCounter (Wallac, Turku, Finland).

[1] abbreviates: whole blood, HIV-infected patients and control subjects, 18 h incubation.

Turning to `CCNC(=O)[C@@H]1CCCN1C(=O)[C@H](CCCNC(=N)N)NC(=O)[C@H](CC(C)C)NC(=O)[C@@H](CC(C)C)NC(=O)[C@H](Cc1ccc(O)cc1)NC(=O)[C@H](CO)NC(=O)[C@H](Cc1c[nH]c2ccccc12)NC(=O)[C@H](Cc1c[nH]cn1)NC(=O)[C@@H]1CCC(=O)N1` [GnRH, D-Leu^6, des-Gly-NH2^10] GnRH (1-9) NHEt], the “expression of HLA DR on T cells” value with T cells (whole blood from HIV-patients, 18 h incubation) is on record as “increased in one of three HIV-patients”. The “expression of HLA ABC on T cells” value with T cells (whole blood from healthy subjects or HIV-infected patients, 18 hours incubation, 50 U/mL IL-2, leuprolide acetate between 10^−1 and 10^−5 M, FIG. 6) is “upregulation of HLA ABC”. Besides, in the assay with T cells (setting [1]), the “expression of CD25 on T cells” value is reported as “only a slight increase” and the “expression of CD69 on T cells” value is given as “only a slight increase”. The PBMC proliferation entry with PBMC was “increased proliferation”.
